Values joined by “and” are separate entries in the source; they are usually repeats but may differ in a detail not shown here. Equal values may be shown once. “Also recorded” adds a separate entry of the source. Read-outs that look alike come from different tables or passages of the source.
How the values were obtained:
[1] = not given; remark: listed apart in the source
[2] = Crystal form stability of drug substance in different temperature and humidity conditions; format: physicochemical
Procedure: The drug substance of Form II was subjected to different relative humidity levels at 40° C. (±2° C.), samples were pulled out and evaluated for crystal form after a specified time period, and the results are summarized in Table 10.
The drug substance of Form II was subjected to different temperatures at RH 32% (±5%), samples were pulled out and evaluated for crystal form after a specified time period, the results are summarized in Table 11.
The drug substance of Form II was packed with PE to evaluate the stability.
The drug substance of Form II was stored in sealed glass vial under ambient conditions for 9 months.

[3] = drug substance powder, individual determination, trihydrate

With `CCCCC(=O)N(Cc1ccc(-c2ccccc2-c2nnn[n-]2)cc1)[C@H](C(=O)[O-])C(C)C.CCOC(=O)[C@H](C)C[C@@H](Cc1ccc(-c2ccccc2)cc1)NC(=O)CCC(=O)[O-].O.[Na+].[Na+].[Na+]` [Form I, trisodium [3-((1S,3R)-1-biphenyl-4-ylmethyl-3-ethoxycarbonyl-1-butylcarbamoyl) propionate-(S)-3′-methyl-2′-(pentanoyl{2″-(tetrazol-5-ylate)biphenyl-4′-ylmethyl}amino) butyrate] hydrate] the “moisture uptake compared to patent form (DVS)” value (humidity levels 20% RH to 60% RH at 25° C., hydrate) was “less hygroscopic; also recorded: less moisture uptake”.

In the case of `CCCCC(=O)N(Cc1ccc(-c2ccccc2-c2nnn[n-]2)cc1)[C@H](C(=O)[O-])C(C)C.CCOC(=O)[C@H](C)C[C@@H](Cc1ccc(-c2ccccc2)cc1)NC(=O)CCC(=O)[O-].O.O.O.[Na+].[Na+].[Na+]` [Form II, trisodium [3-((1S,3R)-1-biphenyl-4-ylmethyl-3-ethoxycarbonyl-1-butylcarbamoyl) propionate-(S)-3′-methyl-2′-(pentanoyl{2″-(tetrazol-5-ylate)biphenyl-4′-ylmethyl}amino) butyrate] trihydrate], the “Compressibility Index” value ([1]; (Tapped Density-Bulk Density)/Tapped Density*100%, individual determination, trihydrate) is reported as 22% and 23% (2×), the “Compressibility Index Average” value ([1]; average of the determinations) is reported as 22% and the “flowability compared with patent form” value ([1]; by compressibility index) is reported as “better”. For the same molecule, the “Bulk Density” value [1, 3] was 0.197 g/mL and 0.229 g/mL and 0.258 g/mL, the “Tapped Density” value [1, 3] was 0.251 g/mL and 0.297 g/mL and 0.337 g/mL and the Flowability ([1]; rating by compressibility index, USP<1174>, trihydrate) was “Passable”. For the same molecule, the “moisture uptake compared to patent form (DVS)” value (humidity levels 50% RH to 60% RH at 25° C., trihydrate) was “less hygroscopic; also recorded: less moisture uptake”, the “Crystal form stability, accelerated” value ([2]; packed with PE, 40° C., RH 75%, one month) was “remained stable” and the Crystal form stability ([2]; sealed glass vial, ambient conditions, 9 months) was “remained stable”.

Source: patent US10508087B2, “Crystalline forms of trisodium supramolecular complex comprising valsartan and AHU-377 and methods thereof” (CRYSTAL PHARMATECH CO., LTD., priority 2014, dated 2019)
